# pIC50: −log10 of the molar value. Calls of active or inactive are those of the source. Cut-off not given; nearly all actives show IC50 up to about 7.9 µM.
# Biological target: Trace amine-associated receptor 1 (Homo sapiens) (UniProt Q96RJ0)
# Assay: agonist-induced loss of TAAR1 response, titration – cell-based, fluorescence, late stage, counter-screen for TAAR1 agonist project, dose response (AID 743231)
# Details: hTAAR1 cells, desensitization of agonist response
# Trace amine-associated receptor 1 (Homo sapiens), sequence (Q96RJ0 whole entry, looked up): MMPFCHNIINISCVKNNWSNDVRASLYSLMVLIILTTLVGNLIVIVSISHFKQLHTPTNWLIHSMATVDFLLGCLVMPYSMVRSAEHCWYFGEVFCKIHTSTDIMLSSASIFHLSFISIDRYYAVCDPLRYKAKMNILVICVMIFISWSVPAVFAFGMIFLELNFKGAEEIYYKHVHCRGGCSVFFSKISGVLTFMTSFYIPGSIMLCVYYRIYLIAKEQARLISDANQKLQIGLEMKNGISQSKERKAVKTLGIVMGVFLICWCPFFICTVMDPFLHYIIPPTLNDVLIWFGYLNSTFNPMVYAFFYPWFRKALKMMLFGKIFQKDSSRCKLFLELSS
SMILES,pIC50,IC50
O=C(CCN1CCC(c2ccccc2)C1)c1ccc2c(c1)OCCO2 (stereo not given),6.07,–
OCCNc1nc(Nc2cccc(O)c2)nc2ccccc12,6.61,–
COc1cc(C(=O)CCN2CCC(c3ccccc3)C2)cc(OC)c1OC (stereo not given),5.82,–
O=C(Nc1cccnc1)Nc1cccc(F)c1,5.19,–
Nc1nc(Nc2cccc(F)c2)nc2ccccc12,5.89,–
c1ccc(CCn2nnnc2C(c2cccs2)N2CCN(Cc3ccc4c(c3)OCO4)CC2)cc1 (stereo not given),5.87,–
OCCNc1nc(Nc2ccc(O)cc2)nc2ccccc12,5.73,–
CC1(C)CCCN(C(=O)c2coc(=O)c(Br)c2)C1,5.59,–
CCOC(=O)C(NC(=O)CC)(N1CCc2ccccc2C1)C(F)(F)F (stereo not given),6.21,–
O=C(C(=O)N1CCc2ccccc2C1)c1cn(CC(=O)N2CCCCC2)c2ccccc12,5.57,–
O=C(CCN1CCC(c2ccccc2)C1)c1cccs1 (stereo not given),6.08,–
O=C(Nc1ccncc1)Nc1ccc(F)cc1,5.61,–
O=C(CCN1CCc2ccccc2CC1)c1ccc2c(c1)OCCO2,6.00,–
NC(N)=NN=Cc1c(Cl)cccc1Cl,6.11,–
Nc1nc(Nc2ccccc2)nc2ccccc12,6.19,–
Cc1cc(N(C)C)nc(Nc2ccccc2)n1,6.68,–
Cc1ccc(NC(=O)CCN2CCc3ccccc3C2)cc1,5.08,–
Cc1cc(C)n(C(CC(=O)N2CCc3ccccc3C2)C(=O)O)n1 (stereo not given),5.92,–
O=C(Nc1ccccc1)Nc1ccncc1,5.56,–
CCOC(=O)C(NC(C)=O)(N1CCc2ccccc2C1)C(F)(F)F (stereo not given),6.19,–
CC(=NCCc1ccccc1)C1CCOC1=O (stereo not given),5.55,–
O=C(Nc1cccc2ccccc12)N1CCc2ccccc2C1,–,> 29.9 µM (inactive)
c1ccc2c3c([nH]c2c1)CCNC3,5.95,–
c1ccc2c(c1)CCN(c1nc3cc4c(cc3s1)OCO4)C2,5.65,–
O=C(CCCCl)N1CCc2[nH]c3ccccc3c2C1,5.96,–
